From US7338976B1, “Heterocyclic esters or amides for vision and memory disorders” (GPI NIL Holdings, Inc., priority 1998, dated 2008) come the findings set out here.

SMILES strings stand for the structures.

One data set relates to RT97 + RGC axons. Description: Protection of retinal ganglion cell axons from degeneration following optic nerve transection (Table VIII). In kind it is in vivo. Particulars: ± SEM. From the text: Efficacy of representative compounds from different immunophilin ligand series in protecting retinal ganglion cell axons from degeneration following optic nerve transection is set forth in Table VIII

A short description of data set [1]: Clearance (Table VIII comments). Type of data set: in vitro ADME.
In data set [2] the test system is retinal ganglion cells, optic nerve axons and myelin. Description: Retinal ischemia (intraocular pressure raised above arterial pressure), examined 28 days later. In kind it is in vivo, adult rats. An excerpt: Retinal ganglion cells were retrogradely labeled in adult rats by bilateral injection of fluorogold in their lateral geniculate nuclei. Labeled ganglion cells in the normal rat retina appear as white profiles against the dark background (FIG. 1A). Complete retinal ischemia was produced by infusing normal saline solution into the retinal vitreous cavity of each eye until the intraocular pressure exceeded arterial blood pressure. 28 days after the ischemic episode extensive degeneration of retinal ganglion cell was evidenced by massive reduction in the density of fluorogold labeled cells (FIG. 1B).
Optic nerves from vehicle treated cases examined 28 days after a 1 hour retinal ischemic episode are characterized by a decreased density of optic nerve axons and the appearance of numerous degenerating myelin figures (bright white filled circles).

Data set [3] has as its system retina (INL, GCL, ONL, OPL, PR). The experiment in a line: Streptozotocin induced diabetes: retinal neovascularization and neuron loss. In kind it is in vivo. As to conditions: 28 day treatment beginning 8 weeks after onset of streptozotocin diabetes.
In data set [4] the test system is retinal ganglion cells and their axons. The experiment in a line: Example 15: optic nerve transection, 28 days GPI-1046, sacrifice at 90 days. In kind it is in vivo, Sprague Dawley rats. As to conditions: 10 mg/kg/day s.c. for 28 days; 90 days after transection; RT97. From the text: Transection of the mammalian optic nerve results in a brief period of abortive regeneration, but the majority of axotomized neurons die and the axons from many persisting ganglion cells die back beyond the optic nerve head.

The test system of data set [5] is retinal ganglion cells and optic nerve axons. Description: Optic nerve transection vision loss model, 14 or 28 day treatment, sacrifice 90 days after transection. Type of data set: in vivo, Sprague Dawley rats. Particulars: 28 days treatment; 90 days after ONT; cross sectional area × myelin density. An excerpt:
All eyes and optic nerves stumps were removed.

With `CCC(C)(C)C(=O)C(=O)N1CCC[C@H]1C(=O)O` [L], the “RT97 +RGC axon density 14 days after ON transection (% ON axons rescued)” value in the data set with RT97 + RGC axons is 7.8%±3.0% SEM. In data set [1], this compound showed a Clearance of 12.5 µL/min.

Take `CCC(C)(C)C(=O)C(=O)N1CCC[C@H]1C(=O)CCCCc1cccnc1` [J]: the “RT97 +RGC axon density 14 days after ON transection (% ON axons rescued)” value in the data set with RT97 + RGC axons is 15.8%±4.8% SEM.

With `O=C(OCCCc1cccnc1)[C@@H]1CCCN1C(=S)NC1CCCCC1` [I], the “RT97 +RGC axon density 14 days after ON transection (% ON axons rescued)” value in the data set on RT97 + RGC axons is 23.8%±5.3 SEM.

Regarding `CCC(C)(C)C(=O)C(=O)N1CCC[C@H]1C(=O)OCCCc1cccnc1` [GPI 1046, 3-(3-pyridyl)-1-propyl (2s)-1-(3,3-dimethyl-1,2-dioxopentyl)-2-pyrrolidinecarboxylate], the “RT97 +RGC axon density 14 days after ON transection (% ON axons rescued)” value in the data set with RT97 + RGC axons is given as 60.5%±3.9 SEM. For the same compound, the “protection of retinal ganglion cells after retinal ischemia” value in data set [2] (10 mg/kg s.c. 1 hour prior and 10 mg/kg/day for next four days, 28 days after ischemia, fluorogold labeled cells) is on record as “noticeable protection of a large proportion of the vulnerable ganglion cell population”. The “protection of optic nerve axons after retinal ischemia” value in data set [2] (same cases, toluidine blue staining, 28 days after 1 hour ischemia) is listed as “protected the majority of optic nerve exons from degeneration”. For the same compound, in data set [3], the “neovascularization in PR, ONL, OPL and INL” value is “reduced neovascularization”. Also, the “preservation of axons in the proximal stump” value in data set [4] is “preserved the axons of virtually all protected neurons”. The “Distal optic nerve myelin basic protein Density: myelin preservation” value in data set [5] is roughly 99 % myelin preservation.

For `CCC(C)(C)C(=O)C(=O)N1CCC[C@H]1C(=O)SCCC(c1ccccc1)c1ccccc1` [M], in the data set on RT97 + RGC axons, the “RT97 +RGC axon density 14 days after ON transection (% ON axons rescued)” value is on record as −6.3%+3.9% SEM.

Take `CCC(C)(C)C(=O)C(=O)N1CCCC[C@H]1C(=O)O` [G]: the “RT97 +RGC axon density 14 days after ON transection (% ON axons rescued)” value with RT97 + RGC axons is given as 34.0%±4.8% SEM.

Consider `CCC(C)(C)C(=O)C(=O)N1CCCC[C@H]1C(N)=O` [H], for which the “RT97 +RGC axon density 14 days after ON transection (% ON axons rescued)” value with RT97 + RGC axons was 30.3%±8.0% SEM.

`O=C(SCCCc1ccccc1)[C@@H]1CCCN1S(=O)(=O)Cc1ccccc1` [C]: in the data set with RT97 + RGC axons, the “RT97 +RGC axon density 14 days after ON transection (% ON axons rescued)” value is 60.4%±3.1% SEM.

As for `O=C(SCCCc1ccccc1)[C@@H]1CCCN1C(=O)NC12CC3CC(CC(C3)C1)C2` [B], the “RT97 +RGC axon density 14 days after ON transection (% ON axons rescued)” value with RT97 + RGC axons is given as 100.0%±5.2% SEM.
